Several values for one entry are separate records, joined by “and”; a condition that tells them apart may be missing. Equal entries are not always repeated.
What was measured:
mIL-1RII = assay: Pre- and post-steroid therapy mIL-1RII expression in PBMC by Q-RT-PCR; type: in vivo, human; conditions: subset
Procedure: FIG. 5B. Pre- and post-treatment mIL-1RII levels in a subset of clinical responders and non-responders. Responders have essentially zero basal mIL-1RII expression, compared with non-responders that have substantially higher basal levels.
Q-RT-PCR. Quantitative Real Time RT-PCR (Q-RT-PCR) was performed on PBMC from patients using TaqMan chemistry. The relative abundance of IL1R2 mRNA for 2 membrane bound (mIL-1RII) and the soluble (sIL-1RII) coding regions associated with the 2 Affymetrix probes sets 211372 (sIL-1RII) and 205403 (mIL-1RID compared to β-actin was determined using the Eurogentec RTqPCR mastermix (Eurogentec, Belgium) and ABI PRISM 7700 Sequence Detection System. Membrane bound IL-1RII, as reflected by Affymetrix probe set 205403 was detected by primers nt 1239-1258, 1295-1314, and taqman probe 1271-1278, whereas the shorter soluble form (sIL-1RII) reflected by the Affymetrix probe 211372 and primers nt 790-830-849, and taqman probe 820-827. […] Data was analyzed using Sequence Detection System software version 1.9.1. Results were expressed as Ct (Threshold cycle) values, which is inversely proportional to the starting template copy number. Relative abundance of IL1R2 in […] cells was calculated compared to untreated control samples using delta delta Ct method (User Bulletin #2, Applied Biosystems Inc). […]

patients with AIED = assay: Prednisone treatment of AIED patients with sudden hearing decline, pre/post-treatment audiograms; type: in vivo, human; conditions: for AVG Improve: 60 mg prednisone daily 7 days then taper
Procedure: FIG. 5A. 10 patients with presumptive AIED and sudden declines in hearing were enrolled, blood samples were taken and then the patients were treated with 60 mg prednisone/day×7 days and then tapered. Post-treatment audiograms were obtained between 7-14 days later. Improvement (Δ) was measured as the average of 500, 1, 2, 4 & 8 kHz. […] The patient that improved 13.3 dB represented a patient that returned to normal hearing thresholds. PBMC were isolated, divided and cultured for 16 hours with either 0 μg/ml or increasing concentrations of dexamethasone (8, 20, 40 or 80 μg/ml). Fold changes in levels of mIL-1RII by Q-RT-PCR after in vitro challenge with dexamethasone (expressed as fold change over baseline) predicted steroid responsiveness in AIED. In data on 7 subjects, the fold-increase was log-transformed in order to better meet the assumptions of a normal distribution with equal variance.
Prospectively Enrolled, Steroid Treated Subjects. Ten patients with AIED who had not undergone cochlear implantation were studied in a separate IRB approved protocol. […] The responders were defined as a 10 dB or greater average improvement at 250, 500, 1000, 2000, 4000 and 8000 Hz. […] Furthermore, SNHL of greater than 30 dB at one or more frequencies in both ears with evidence of active deterioration (elevated threshold) in at least one ear of 15 dB at one frequency (excluding 250 or 8 kHz as a sole indicator), or 10 dB at 2+ frequencies developing in >3 days but <90 days (Niparko et al. 2005, Yeom et al. 2003). If the hearing loss evolved in less than 3 days, prior similar hearing declines must have occurred or the patient must have a systemic autoimmune disorder AND the patient must meet the audiology criteria outlined above. All patients with retrocochlear (vestibular schwannoma or other internal auditory canal s) pathology), patients who received prednisone or other immunosuppressive therapy within 3 months, or patients with vestibular symptoms coinciding with periods of hearing fluctuation were all excluded from this study. All patients received a minimum of 60 mg of prednisone daily for 7 days with a variable taper thereafter.
60% of patients studied by the AIED study group were steroid responsive (Niparko et al. 2005). In the present study, in vitro PBMC membrane-bound IL-IRII (mIL-1RII) mRNA expression in response to dexamethasone stimulation was compared to basal mIL-1RII expression in cultures of PBMCs collected prior to clinical steroid treatment. In addition, pre-treatment mIL-1RII expression was compared to post-treatment hearing recovery. Furthermore, pre- and post-treatment mIL-1RII expression were compared in a subset of clinical responders and non-responders. […] All responders returned to their prior baseline hearing thresholds at the end of the corticosteroid treatment. Non-responders were defined as less than 5 dB improvement at the same frequencies or further decline of pure tone thresholds. […] Of note, the dramatic difference in fold change of the corticosteroid responders is inversely proportional to basal mIL-1RII expression in PBMC (45 cycles, S.D. 0.0 in replicate samples) in an unstimulated condition, compared to corticosteroid non-responders (28.48 cycles, S.D.±3.34) (FIG. 5B, p<0.0001). In all patient samples, the unstimulated condition is the average of 2 independent cultured PBMC samples. Furthermore, post-steroid therapy mIL-1RII expression was determined in a subset of patients.

IL-1RA, IL-1β = conditions: experimentally; cited from earlier work
[1] = compared to placebo; cited from earlier work
TNF-α = conditions: animal studies, inner ear; cited from earlier work

## C[C@]12C=CC(=O)C=C1CC[C@@H]1[C@@H]2C(=O)C[C@@]2(C)[C@H]1CC[C@]2(O)C(=O)CO [prednisone]
mIL-1RII; clinical non-responders, pre-treatment 30 cycles
  mIL-1RII expression detected post-treatment: 27 cycles
mIL-1RII; clinical responders, pre-treatment no expression at 45 cycles
  mIL-1RII expression detected post-treatment: 30 cycles
Patients with AIED; Responders (R), post-treatment audiograms 7-14 days later
  hearing outcome of responders: returned to prior baseline hearing
Patients with AIED; patient 39WM (R3)
  AVG Improve: 13.3 dB and 13 dB
Patients with AIED; patient 42 (NR2)
  AVG Improve: 0 dB
Patients with AIED; patient 45WM (NR 5), (NS)
  AVG Improve: 1 dB
Patients with AIED; patient 54 (R2)
  AVG Improve: 33 dB
Patients with AIED; patient 56 (R1)
  AVG Improve: 38 dB
Patients with AIED; patient 56WM (NR1)
  AVG Improve: 0 dB
Patients with AIED; patient 57 (NR4)
  AVG Improve: 0 dB
Patients with AIED; patient 60WF (NR7), (NS)
  AVG Improve: 4 dB
Patients with AIED; patient 61HF (NR3)
  AVG Improve: 0 dB
Patients with AIED; patient 62 (NR6)
  AVG Improve: 0dB

## CN(Cc1cnc2nc(N)nc(N)c2n1)c1ccc(C(=O)N[C@@H](CCC(=O)O)C(=O)O)cc1 [methotrexate]
IL-1RA, IL-1β
  IL-1RA release: stimulates IL-1RA release
  IL-1β synthesis: inhibits IL-1β synthesis
[1]
  maintenance of hearing: could not maintain hearing

## Etanercept
TNF-α
  TNF-α release after administration of antigen: can be reversed

Reference: patent US20100069343A1, “Methods of predicting steroid responsiveness with Il-1RII” (priority 2008, published 2010)
